Each structure is given as a SMILES string. A value given as a limit tells only on which side of the number the result lay.

For experiment [1], the system named is human acute monocytic leukemia cell line MV-4-11. The experiment in a line: Assay 2 (Cell Proliferation Assay), ATP quantitation (CellTiter-Glo). The following applies: Homo sapiens, MV4-11, 72 h, MV-4-11 cells, read-out: Assay 2 (EC50, inhibition of cell proliferation). Type of experiment: cell-based. The essentials: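 Cells (1.67×10^4/well, 10% FBS medium) incubated ±compound 72 h at 37 °C, 5% CO2; HL-60 served as toxicity control. ATP read by CellTiter-Glo luminescence; % inhibition scaled between DMSO and a potent menin inhibitor at ≥100×LD50.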
For orientation: Cellular ATP, detected with luciferase, serves as a proxy for viable cell number.

Experiment [2] deals with T1, menin/MLL binding (biotinylated wild-type or mutated menin and MLL-AF9 fusion protein) (Homo sapiens, UniProt O00255).
T1 construct: biotinylated (1) wild-type menin or (2) mutated menin (described in Nature (2012) Vol. 482, pp. 542-548); fused on or other part: Biotin attached chemically (Sulfo-NHS-Biotin); no fused second protein is printed for menin
T1 sequence (O00255 1-459 limits assumed): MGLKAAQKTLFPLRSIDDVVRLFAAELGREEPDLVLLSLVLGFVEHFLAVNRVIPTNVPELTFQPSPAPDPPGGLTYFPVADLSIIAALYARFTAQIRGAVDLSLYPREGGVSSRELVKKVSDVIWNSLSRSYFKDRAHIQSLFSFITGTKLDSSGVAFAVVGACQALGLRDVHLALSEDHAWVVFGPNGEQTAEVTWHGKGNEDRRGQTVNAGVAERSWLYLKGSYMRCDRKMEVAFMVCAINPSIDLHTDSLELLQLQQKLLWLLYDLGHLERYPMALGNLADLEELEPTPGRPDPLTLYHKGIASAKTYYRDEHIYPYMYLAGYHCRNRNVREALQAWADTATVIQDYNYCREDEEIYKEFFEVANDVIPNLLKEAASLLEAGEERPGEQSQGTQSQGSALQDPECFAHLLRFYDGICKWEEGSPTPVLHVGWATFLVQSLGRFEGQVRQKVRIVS
The experiment is described as follows: Assay 1 (Binding Assay): AlphaLISA menin/MLL binding. The following applies: 5 nM biotinylated menin, MLL-AF9-FLAG lysate. The essentials: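 Biotinylated E. coli-expressed menin (wild-type or mutant), 5 nM, incubated 30 min RT with compound and HEK293 lysate of MLL1-1,396–AF9-FLAG in pH 7.4 Tris buffer, 5% DMSO, 1 mM DTT. Anti-FLAG acceptor and streptavidin donor beads added, 60 min RT, AlphaLISA signal read. IC50 from four-parameter fit of % inhibition.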

Regarding `CC(C)N(C)C(=O)c1cc(F)ccc1-n1cc([C@H]2CC[C@H](N3CCC[C@H]3CO)CC2)c2ccncc21` [Example 96, 5-fluoro-2-(3-(trans-4-((S)-2-(hydroxymethyl)pyrrolidin-1-yl)cyclohexyl)-1H-pyrrolo[2,3-c]pyridin-1-yl)-N-isopropyl-N-methylbenzamide], the EC50 in experiment [1] lay within 0.1 to 1 µM. The 50% inhibitory concentration (IC50) (as a rule, the concentration that gives 50% inhibition) in experiment [2] is less than 0.1 µM.
In the same order, the values of `CC(=O)N[C@H]1CC[C@H](CCN2CCC(c3cn(-c4ccc(F)cc4C(=O)N(C)C(C)C)c4cnccc34)CC2)CC1` [Example 18, 2-(3-(1-(2-(trans-4-acetamidocyclohexyl)ethyl)piperidin-4-yl)-1H-pyrrolo[2,3-c]pyridin-1-yl)-5-fluoro-N-isopropyl-N-methylbenzamide] are 0.1 to 1 µM and less than 0.1 µM.
In the same order, the values of `CC(C)N(C)C(=O)c1cc(F)ccc1-n1cc(C2CCN(CC3CCOCC3)CC2)c2ccncc21` [Example 4, 5-fluoro-N-isopropyl-N-methyl-2-(3-(1-((tetrahydro-2H-pyran-4-yl)methyl)piperidin-4-yl)-1H-pyrrolo[2,3-c]pyridin-1-yl)benzamide] are no less than 1 µM and less than 0.1 µM.
In the same order, the values of `CCCCCCCCCCCCCCCCCC(=O)OCCn1c(=O)[nH]c2cc(CN3CCC[C@H](c4cn(-c5ccc(F)cc5C(=O)N(C)C(C)C)c5cnccc45)C3)ccc21` [Example 86, (R)-2-(5-((3-(1-(4-fluoro-2-(isopropyl(methyl)carbamoyl)phenyl)-1H-pyrrolo[2,3-c]pyridin-3-yl)piperidin-1-yl)methyl)-2-oxo-2,3-dihydro-1H-benzo[d]imidazol-1-yl)ethyl stearate] are less than 0.1 µM and less than 0.1 µM.
Regarding `CC(C)N(C)C(=O)c1cc(F)ccc1-n1cc([C@H]2CC[C@H](N3CCCC(O)C3)CC2)c2ccncc21` (stereo partly drawn) [Example 112, 5-fluoro-2-(3-(trans-4-(3-hydroxypiperidin-1-yl)cyclohexyl)-1H-pyrrolo[2,3-c]pyridin-1-yl)-N-isopropyl-N-methylbenzamide], the EC50 in experiment [1] was no less than 1 µM. Besides, the concentration for half-maximal inhibition (IC50) in experiment [2] was less than 0.1 µM.
`CC(C)N(C)C(=O)c1cc(F)ccc1-n1cc([C@H]2CC[C@H](N)CC2)c2ccncc21` [Example 57, 2-(3-(trans-4-aminocyclohexyl)-1H-pyrrolo[2,3-c]pyridin-1-yl)-5-fluoro-N-isopropyl-N-methylbenzamide]: the EC50 in experiment [1] was no less than 1 µM. The same compound showed an IC50 in experiment [2] of less than 0.1 µM.
For `CC(C)N(C(=O)c1cc(F)ccc1-n1cc(C2CCCN(Cc3ccc4c(c3)[nH]c(=O)n4CCO)C2)c2ccncc21)C(C)C` (centres unmarked) [Example 84, 5-fluoro-2-(3-(1-((1-(2-hydroxyethyl)-2-oxo-2,3-dihydro-1H-benzo[d]imidazol-5-yl)methyl)piperidin-3-yl)-1H-pyrrolo[2,3-c]pyridin-1-yl)-N,N-diisopropylbenzamide] the same measures were less than 0.1 µM and less than 0.1 µM.
As to `CCN(C(=O)c1cc(F)ccc1-n1cc([C@@H]2CCCN(Cc3ccc4c(c3)[nH]c(=O)n4CCO)C2)c2ccncc21)C(C)C` [Example 49A, (S)-N-ethyl-5-fluoro-2-(3-(1-((1-(2-hydroxyethyl)-2-oxo-2,3-dihydro-1H-benzo[d]imidazol-5-yl)methyl)piperidin-3-yl)-1H-pyrrolo[2,3-c]pyridin-1-yl)-N-isopropylbenzamide], in experiment [1], the EC50 is less than 0.1 µM. Also, the concentration for half-maximal inhibition (IC50) in experiment [2] was less than 0.1 µM.
Regarding `CC(C)N(C)C(=O)c1cc(F)ccc1-n1cc(C2CCN(C[C@H]3CC[C@H](NS(C)(=O)=O)CC3)C2)c2ccncc21` (stereo partly drawn) [Example 124, N-methyl-5-fluoro-N-isopropyl-2-(3-(1-((trans-4-(methylsulfonamido)cyclohexyl)methyl)pyrrolidin-3-yl)-1H-pyrrolo[2,3-c]pyridin-1-yl)benzamide], the EC50 in experiment [1] fell in the range of 0.1 to 1 µM. This compound also displayed an IC50 in experiment [2] of less than 0.1 µM.
In the same order, the values of `CC(C)N(C)C(=O)c1cc(F)ccc1-n1cc(C2CCC(N(C)C)CC2)c2ccncc21` (single isomer, unassigned) [Example 54, 2-(3-(4-(dimethylamino)cyclohexyl)-1H-pyrrolo[2,3-c]pyridin-1-yl)-5-fluoro-N-isopropyl-N-methylbenzamide] are no less than 1 µM and less than 0.1 µM.
In the same order, the values of `CC(C)N(C)C(=O)c1cc(F)ccc1-n1cc(C2CCN(CCN3CCC(NS(C)(=O)=O)CC3)CC2)c2ccncc21` [Example 93, 5-fluoro-N-isopropyl-N-methyl-2-(3-(1-(2-(4-(methylsulfonamido)piperidin-1-yl)ethyl)piperidin-4-yl)-1H-pyrrolo[2,3-c]pyridin-1-yl)benzamide] are 0.1 to 1 µM and less than 0.1 µM.
With `Cc1c(CN2CCC(c3cn(-c4ccc(F)cc4CC(C)C)c4cnccc34)CC2)ccc2[nH]c(C#N)cc12` [Example 42, 5-((4-(1-(4-fluoro-2-isobutylphenyl)-1H-pyrrolo[2,3-c]pyridin-3-yl)piperidin-1-yl)methyl)-4-methyl-1H-indole-2-carbonitrile], the EC50 in experiment [1] was in the range of 0.1 to 1 µM. The half-maximal inhibitory concentration (IC50) in experiment [2] was less than 0.1 µM.
For `CS(=O)(=O)N[C@H]1CC[C@H](CCN2CCC(c3cn(-c4ccc(F)cc4OCC4CC4)c4cnccc34)CC2)CC1` [Example 34, N-(trans-4-(2-(4-(1-(2-(cyclopropylmethoxy)-4-fluorophenyl)-1H-pyrrolo[2,3-c]pyridin-3-yl)piperidin-1-yl)ethyl)cyclohexyl)methanesulfonamide] the same measures were 0.1 to 1 µM and less than 0.1 µM.
For `CC(C)N(C)C(=O)c1cc(F)ccc1-n1cc([C@H]2CC[C@H](N3CCC(F)(F)CC3)CC2)c2ccncc21` [Example 110, 2-(3-(trans-4-(4,4-difluoropiperidin-1-yl)cyclohexyl)-1H-pyrrolo[2,3-c]pyridin-1-yl)-5-fluoro-N-isopropyl-N-methylbenzamide] the same measures were 0.1 to 1 µM and less than 0.1 µM.
For `Cc1c(CN2CCC(c3cn(-c4ccc(F)cc4C(=O)N(C)C(C)C)c4cnccc34)CC2)ccc2[nH]c(C#N)cc12` [Example 2, 2-(3-(1-((2-cyano-4-methyl-1H-indol-5-yl)methyl)piperidin-4-yl)-1H-pyrrolo[2,3-c]pyridin-1-yl)-5-fluoro-N-isopropyl-N-methylbenzamide] the same measures were less than 0.1 µM and less than 0.1 µM.
For the compound `CCN(C(=O)c1cc(F)ccc1-n1cc(C2CCCN(Cc3ccc4[nH]c(=O)[nH]c4c3)C2)c2ccncc21)C(C)C` (single isomer, unassigned) [Example 47A], the EC50 in experiment [1] was less than 0.1 µM. In experiment [2], this compound gave an IC50 of less than 0.1 µM.

The values are drawn from US10899758B2, “Inhibitors of the menin-MLL interaction” (Vitae Pharmaceuticals, LLC, priority 2016, dated 2021).
